{
  "source": "ChEMBL document CHEMBL1127470",
  "about": "“Analogues of the marine immunosuppressant microcolin A: preparation and biological activity” (J Med Chem, 1994)",
  "key": {"Homo sapiens": {"species": "Homo sapiens", "assay": "The compound was tested for inhibition of human splenocyte proliferation by [3H]thymidine incorporation", "assay_type": "functional, organism-based"}, "Mus musculus": {"species": "Mus musculus", "assay": "The compound was tested for inhibition of murine splenocyte proliferation by [3H]thymidine incorporation", "assay_type": "functional, organism-based"}},
  "data": [
    {"smiles": "CCCCC(C)CC(C)C(=O)N(C)[C@@H](CC(C)C)C(=O)N[C@H](C(=O)N(C)[C@H](C(=O)N1C[C@@H](O)C[C@H]1C(=O)N1C(=O)C=CC1C)C(C)C)C(C)OC(C)=O", "note": "(some centres not stated)", "values": [
      {"measurement": "EC50", "setting": "Homo sapiens", "value": 0.02, "unit": "nM"},
      {"measurement": "EC50", "setting": "Mus musculus", "value": 0.02, "unit": "nM"}
    ]},
    {"smiles": "CCCCC(C)CC(C)C(=O)N(C)[C@@H](CC(C)C)C(=O)N[C@H](C(=O)N(C)[C@H](C(=O)N1C[C@@H](O)C[C@H]1C(=O)N1C(=O)C=CC1C)C(C)C)C(C)O", "note": "(some centres not stated)", "values": [
      {"measurement": "EC50", "setting": "Homo sapiens", "value": 0.04, "unit": "nM"},
      {"measurement": "EC50", "setting": "Mus musculus", "value": 0.006, "unit": "nM"}
    ]},
    {"smiles": "CCCCC(C)CC(C)C(=O)N(C)[C@@H](CC(C)C)C(=O)N[C@H](C(=O)N(C)[C@H](C(=O)N1C[C@@H](OC(C)=O)C[C@H]1C(=O)N1C(=O)C=CC1C)C(C)C)C(C)OC(C)=O", "note": "(some centres not stated)", "values": [
      {"measurement": "EC50", "setting": "Homo sapiens", "value": 10.2, "unit": "nM"},
      {"measurement": "EC50", "setting": "Mus musculus", "value": 19, "unit": "nM"}
    ]},
    {"smiles": "CCCCC(C)CC(C)C(=O)N(C)[C@@H](CC(C)C)C(=O)N[C@H](C(=O)N(C)[C@H](C(=O)N1CCC[C@H]1C(=O)N1C(=O)C=CC1C)C(C)C)C(C)OC(C)=O", "note": "(some centres not stated)", "values": [
      {"measurement": "EC50", "setting": "Homo sapiens", "value": 4.1, "unit": "nM"},
      {"measurement": "EC50", "setting": "Mus musculus", "value": 20.5, "unit": "nM"}
    ]},
    {"smiles": "CCCCC(C)CC(C)C(=O)N(C)[C@@H](CC(C)C)C(=O)N[C@H](C(=O)N(C)[C@H](C(=O)OC)C(C)C)C(C)OO", "note": "(some centres not stated)", "values": [
      {"measurement": "EC50", "setting": "Homo sapiens", "value": 380, "unit": "nM"},
      {"measurement": "EC50", "setting": "Mus musculus", "value": 380, "unit": "nM"}
    ]},
    {"smiles": "CCCCC(C)CC(C)C(=O)N(C)[C@@H](CC(C)C)C(=O)N[C@H](C(=O)N(C)[C@H](C(=O)N1C[C@@H](O)C[C@H]1C(=O)OC)C(C)C)[C@@H](C)O", "note": "(some centres not stated)", "values": [
      {"measurement": "EC50", "setting": "Homo sapiens", "value": "> 781", "unit": "nM"},
      {"measurement": "EC50", "setting": "Mus musculus", "value": "> 781", "unit": "nM"}
    ]},
    {"smiles": "CCCCC(C)CC(C)C(=O)N(C)[C@@H](CC(C)C)C(=O)N[C@@H]1C(=O)N(C)[C@@H](C(C)C)C(=O)O[C@@H]1C", "note": "(some centres not stated)", "values": [
      {"measurement": "EC50", "setting": "Homo sapiens", "value": 8.1, "unit": "nM"},
      {"measurement": "EC50", "setting": "Mus musculus", "value": 10, "unit": "nM"}
    ]},
    {"smiles": "CCCCC(C)CC(C)C(=O)N(C)[C@@H](CC(C)C)C(=O)N[C@H](C(=O)N(C)[C@H](C(=O)N1CCC[C@H]1C(=O)N1C(=O)CCC1C)C(C)C)C(C)OC(C)=O", "note": "(some centres not stated)", "values": [
      {"measurement": "EC50", "setting": "Homo sapiens", "value": 341, "unit": "nM"},
      {"measurement": "EC50", "setting": "Mus musculus", "value": "> 668", "unit": "nM"}
    ]},
    {"smiles": "CC1C=CC(=O)N1C(=O)[C@@H]1C[C@H](O)CN1", "note": "(some centres not stated)", "values": [
      {"measurement": "EC50", "setting": "Homo sapiens", "value": "> 2400", "unit": "nM"},
      {"measurement": "EC50", "setting": "Mus musculus", "value": "> 2400", "unit": "nM"}
    ]},
    {"smiles": "CCCCC(C)CC(C)C(=O)N(C)[C@@H](CC(C)C)C(=O)N[C@H](C(=O)N(C)[C@H](C(=O)N1C[C@@H](O)C[C@H]1C(=O)N1C(=O)CCC1C)C(C)C)C(C)OC(C)=O", "note": "(some centres not stated)", "values": [
      {"measurement": "EC50", "setting": "Homo sapiens", "value": "> 668", "unit": "nM"},
      {"measurement": "EC50", "setting": "Mus musculus", "value": "> 668", "unit": "nM"}
    ]},
    {"smiles": "CCCCC(C)CC(C)C(=O)N(C)[C@@H](CC(C)C)C(=O)N[C@H](C(=O)N(C)[C@H](C(=O)N1CC(=O)C[C@H]1C(=O)N1C(=O)C=CC1C)C(C)C)C(C)OC(C)=O", "note": "(single isomer, unassigned)", "values": [
      {"measurement": "EC50", "setting": "Homo sapiens", "value": 5.4, "unit": "nM"},
      {"measurement": "EC50", "setting": "Mus musculus", "value": 5.4, "unit": "nM"}
    ]}
  ]
}
